Reference: patent publication US8481749B2, “N-(tetrazol-5-yl)- and N-(triazol-5-yl)arylcarboxamides and their use as herbicides” (Bayer Cropscience AG, priority 2010, dated 2013)

What follows are molecules tested on Veronica persica (assay: Pre-emergence herbicidal action against harmful plants). Settings: 504 h, application rate 80 g/ha, visual assessment after 3 weeks vs untreated controls (100%=plants have died, 0%=like control), read-out: herbicidal activity in percent against Veronica persica.
Assay type: in vivo
In the case of `CCn1ncnc1NC(=O)c1ccc(C(F)(F)F)c(S(C)(=O)=O)c1C` [Compound 2-148], the pest or weed control at 80 g/ha was no less than 80%. In the case of `CCSc1c(Cl)ccc(C(=O)Nc2nnnn2CC)c1C` [Compound 5-122], the pest or weed control at 80 g/ha was no less than 80%. `CCn1nnnc1NC(=O)c1ccc(Cl)c(S(=O)(=O)CC)c1C` [Compound 5-124] was tested, and the pest or weed control at 80 g/ha was no less than 80%. `CCn1nnnc1NC(=O)c1ccc(S(C)(=O)=O)c(OC)c1C` [Compound 5-166] showed a pest or weed control at 80 g/ha of no less than 80%. Molecule `CCn1nnnc1NC(=O)c1ccc(C(F)(F)F)c(S(C)(=O)=O)c1C1CC1` [Compound 5-210] has a pest or weed control at 80 g/ha of no less than 80%. For `CCn1nnnc1NC(=O)c1ccc(S(C)(=O)=O)c(OC)c1Cl` [Compound 5-276], the pest or weed control at 80 g/ha was no less than 80%. In the case of `CCn1nnnc1NC(=O)c1ccc(C#N)c(SC)c1C` [Compound 5-392], the pest or weed control at 80 g/ha was no less than 80%. With `CCCc1c(C(=O)Nc2nnnn2CC)ccc(Cl)c1[S+](C)[O-]` (stereo not drawn) [Compound 5-510] the pest or weed control at 80 g/ha was no less than 80%. Molecule `CCn1nnnc1NC(=O)c1ccc(S(C)(=O)=O)c(SC)c1C(F)(F)F` [Compound 5-597] has a pest or weed control at 80 g/ha of no less than 80%. With `CCn1nnnc1NC(=O)c1ccc(S(=O)(=O)CC)c(SC)c1C(F)(F)F` [Compound 5-598] the pest or weed control at 80 g/ha was no less than 80%. With `CCn1nnnc1NC(=O)c1ccc(C)c(SC)c1Cl` [Compound 5-614] the pest or weed control at 80 g/ha was no less than 80%. In the case of `C#CCOc1c(S(C)(=O)=O)ccc(C(=O)Nc2nnnn2CC)c1Cl` [Compound 5-676], the pest or weed control at 80 g/ha was no less than 80%.
